Experimental data as given in patent publication US4642340A, “Stable compounds of glucosamine sulphate” (Rotta Research Laboratorium S.p.A., priority 1981, dated 1987).
Structures can show the parent of a compound that is named as a salt. Where two headings read alike, the source gives them in different places.

Key:
[1] = Solubility at 25° C. (w/v), saturated solutions, Elson-Morgan colorimetric method; type: physicochemical; settings: for solubility thermodynamic: w/v
Experimental: Solubility (at 25° C.--w/v).
This test was carried out by preparing saturated solutions of glucosamine-SP in various solvents and determining the concentration of the glucosamine by the Elson-Morgan colorimetric method mentioned above.

[2] = pH of aqueous solution; type: physicochemical
Experimental: The pH of an aqueous saturated solution of glucosamine-SP at 20° C. is 3.0±0.2.

[3] = test system: mice-embryo fibroblast; experiment: Stimulation of the production of soluble GAG in mice-embryo fibroblast cultures, uptake of ^35 S; type: cell-based, mice (strain C57 BL/6 stCrl)
Experimental: (§2) For this purpose, primary cultures of mice-embryo fibroblasts (strain C57 BL/6 stCrl) were prepared by mechanical and enzymatic dissociation (in Trypsin Versene mixture-Microbiological Associates) of the embryos taken from the mother on the 18th day of pregnancy. The culture medium is the Eagle medium modified by Dulbecco and supplemented with 15% of calf foetus serum. The incubation atmosphere consists of 5% of carbon dioxide in air at 37° C. 24 hours after innoculation, the medium is replaced by a new medium containing the drug under examination and the radioactive precursor (Na2^35 SO4) for the measurement of the synthesis both of soluble and tissue-bound GAG; the culture is left to incubate for a further 24 hours and then the culture medium (containing the soluble GAG) and fibroblasts (containing the tissue-bound GAG) are separated.
(§3) The soluble GAG are isolated from the culture medium by precipitation with a solution of 5% trichloroacetic acid in ice-water while the fibroblast residues, containing the tissue-bound GAG, after repeated washings with physiological solutions, are dissolved in [sequence] or VERSENE.
(§4) The quantity of ^35 S incorporated both in the soluble GAG and in the tissue-bound GAG are evaluated by the usual scintillation methods and expressed in cpm (counts per minute).
(§5) The tests were carried out five times for each sample in order to allow the results to be evaluated statistically.

[4] = test system: mice-embryo fibroblast; experiment: Stimulation of the production of tissue-bound GAG in mice-embryo fibroblast cultures, uptake of ^35 S; type: cell-based, mice (strain C57 BL/6 stCrl)
Experimental: as §2, §3, §4, §5

[5] = test system: granuloma from cotton pellets; experiment: Anti-inflammatory activity, granuloma induced by cotton pellets; type: in vivo, female albino rats of the Sprague Dawley strain; settings: for Average dry weight of the granuloma (average ± s.e.): in mg (unit assumed)
Experimental: The test consists of evaluating the capacity of the substances under examination to inhibit the formation of granuloma following the subcutaneous implantation of extraneous bodies (in this case, cotton pellets). […] One group of animals was used as a control. […] After the subcutaneous implant of 2 cotton pellets each having a weight of 20 mg into the dorsal region, the animals were administered daily, for 4 consecutive days, with the substances under examination in the doses given above.

[6] = Acute toxicity in mice; parameters: species or system Swiss NMRI mice; settings: mouse, in vivo; for LD50 at 240 h: 10 days observation, read-out: DL50
From the text: Swiss NMRI mice having an average weight of 20±2 g, subdivided in groups of 10 animals (5 females and 5 males) were used for each dose and for each method of administration.
The methods of administration were: oral by means of gastric probe, intramuscular and endovenous into the caudal vein.
(§1) The observation time after administration was 10 days.

[7] = Acute toxicity in rats; parameters: species or system Sprague Dawley albino rats; settings: rat, in vivo; for LD50 at 240 h: 10 days observation, read-out: DL50
From the text: Sprague Dawley albino rats having an average weight of about 150 g, subdivided into groups of 10 animals (5 males and 5 females) were used for each dose and for each method of administration.
The methods of administration were: oral by means of a gastric probe, intramuscular and endovenous into the caudal vein.
as §1

[8] = physchem; settings: solid storage
[9] = 375 mg/kg/os daily, 4 days (= 300 mg/kg glucosamine sulphate)
[10] = 750 mg/kg/os daily, 4 days (= 600 mg/kg glucosamine sulphate)
[11] = im, intramuscular, max. dose 3750 mg/kg
[12] = iv, endovenous, max. dose 1875 mg/kg

In the case of `N[C@H]1C(O)O[C@H](CO)[C@@H](O)[C@@H]1O` (stereo partly shown) [Glucosamine-SP, mixed salt of glucosamine sulphate and sodium chloride], the “Solubility (in words)” value ([1]; benzene, chloroform, carbon tetrachloride, methylene chloride, ligroin, ethyl ether) is reported as “insoluble”, the solubility thermodynamic ([1]; organic solvent or mixture, acetone, acetonitrile, tetrahydrofuran, dioxan (each)) is reported as < 100 µg/mL and the solubility thermodynamic ([1]; organic solvent or mixture, ethanol) is reported as ~300 µg/mL. For the same compound, the solubility thermodynamic ([1]; organic solvent or mixture, methanol) was ~10000 µg/mL, the solubility thermodynamic ([1]; water) was ~400000 µg/mL and the “pH of an aqueous saturated solution” value ([2]; 20° C.) was 3.0±0.2. For the same compound, the “natural pH at the concentrations used” value ([2]; injectable phial concentrations) was “about 3”, the “Soluble GAG synthesis, average ± s.e.” value ([3]; 12.5 γ/ml) was 6750 ± 718 cpm and the “Soluble GAG synthesis, average ± s.e.” value ([3]; 62.5 γ/ml) was 12730 ± 1201 cpm. For the same compound, the “Soluble GAG synthesis, average ± s.e.” value ([3]; 125 γ/ml) was 12440 ± 1473 cpm, the activation at 12.5 µg/mL ([3]; Mus musculus, Fibroblast, 24 h, 12.5 γ/ml, read-out: Δ % over non-treated controls, soluble GAG) was 15.8% and the activation at 62.5 µg/mL ([3]; Mus musculus, Fibroblast, 24 h, 62.5 γ/ml, read-out: Δ % over non-treated controls, soluble GAG) was 118%. The activation at 125 µg/mL ([3]; Mus musculus, Fibroblast, 24 h, 125 γ/ml, read-out: Δ % over non-treated controls, soluble GAG) was 113%, the “Tissue-bound GAG synthesis” value ([4]; 12.5 γ/ml) was 5490 ± 604 cpm and the “Tissue-bound GAG synthesis” value ([4]; 62.5 γ/ml) was 7780 ± 612 cpm. The “Tissue-bound GAG synthesis” value ([4]; 125 γ/ml) was 8320 ± 1295 cpm, the activation at 12.5 µg/mL ([4]; Mus musculus, Fibroblast, 24 h, 12.5 γ/ml, read-out: Δ % over non-treated controls, tissue-bound GAG) was 17.3% and the activation at 62.5 µg/mL ([4]; Mus musculus, Fibroblast, 24 h, 62.5 γ/ml, read-out: Δ % over non-treated controls, tissue-bound GAG) was 66.2%. The activation at 125 µg/mL ([4]; Mus musculus, Fibroblast, 24 h, 125 γ/ml, read-out: Δ % over non-treated controls, tissue-bound GAG) was 77.8%, the “% Inhibition of granuloma” value [5, 9] was 38.7% and the “Average dry weight of the granuloma (average ± s.e.)” value [5, 9] was 94.6 ± 10.7. The “% Inhibition of granuloma” value [5, 10] was 58.0%, the “Average dry weight of the granuloma (average ± s.e.)” value [5, 10] was 64.8 ± 7.0 and the LD50 at 240 h ([6]; im, intramuscular) was > 3750 mg/kg. The mortality at 240 h [6, 11] was 0%, the LD50 at 240 h ([6]; iv, endovenous) was > 1880 mg/kg and the mortality at 240 h [6, 12] was 0%. The LD50 at 240 h ([6]; oral) was > 6250 mg/kg, the mortality at 240 h ([6]; oral, max. dose 6250 mg/kg) was 0% and the LD50 at 240 h ([7]; im, intramuscular) was > 3750 mg/kg. For the same compound, the mortality at 240 h [7, 11] was 0%, the LD50 at 240 h ([7]; iv, endovenous) was > 1880 mg/kg and the mortality at 240 h [7, 12] was 0%. The LD50 at 240 h ([7]; oral) was > 6250 mg/kg, the mortality at 240 h ([7]; oral, max. dose 6250 mg/kg) was 0% and the Appearance (15° C., 30% R.H., 0 days) was 1. For the same compound, the Titre of glucosamine (15° C., 30% R.H., 0 days) was 101.2%, the Appearance (15° C., 30% R.H., 7 days) was 1 and the Appearance (15° C., 30% R.H., 15 days) was 1. It also gave an Appearance (15° C., 30% R.H., 30 days) of 1, an Appearance (15° C., 30% R.H., 60 days) of 1 and an Appearance (15° C., 30% R.H., 120 days) of 1. For the same compound, the Appearance (15° C., 30% R.H., 360 days) was 1, the Appearance (15° C., 45% R.H., 0 days) was 1 and the Titre of glucosamine (15° C., 45% R.H., 0 days) was 100.7%. It also gave an Appearance (15° C., 45% R.H., 7 days) of 1, an Appearance (15° C., 45% R.H., 15 days) of 1 and an Appearance (15° C., 45% R.H., 30 days) of 1. The Appearance (15° C., 45% R.H., 60 days) was 1, the Appearance (15° C., 45% R.H., 120 days) was 1 and the Appearance (15° C., 45% R.H., 360 days) was 1. It also gave an Appearance (15° C., 60% R.H., 0 days) of 1, a Titre of glucosamine (15° C., 60% R.H., 0 days) of 101.2% and an Appearance (15° C., 60% R.H., 3 days) of 1. The Appearance (15° C., 60% R.H., 6 days) was 1, the Appearance (15° C., 60% R.H., 12 days) was 1 and the Appearance (15° C., 60% R.H., 24 days) was 1. For the same compound, the Appearance (15° C., 60% R.H., 36 days) was 1, the Appearance (15° C., 60% R.H., 48 days) was 1 and the Appearance (25° C., 30% R.H., 0 days) was 1. It also gave an Appearance (25° C., 30% R.H., 7 days) of 1, an Appearance (25° C., 30% R.H., 15 days) of 1 and an Appearance (25° C., 30% R.H., 30 days) of 1. The Appearance (25° C., 30% R.H., 60 days) was 1, the Appearance (25° C., 30% R.H., 120 days) was 1 and the Appearance (25° C., 30% R.H., 360 days) was 1. The Appearance (25° C., 45% R.H., 0 days) was 1, the Titre of glucosamine (25° C., 45% R.H., 0 days) was 98.9% and the Appearance (25° C., 45% R.H., 3 days) was 1. The Appearance (25° C., 45% R.H., 6 days) was 1, the Appearance (25° C., 45% R.H., 12 days) was 1 and the Appearance (25° C., 45% R.H., 24 days) was 1. For the same compound, the Appearance (25° C., 45% R.H., 36 days) was 1, the Appearance (25° C., 45% R.H., 48 days) was 1 and the Appearance (25° C., 60% R.H., 0 hours) was 1. For the same compound, the Titre of glucosamine (25° C., 60% R.H., 0 hours) was 100.7%, the Appearance (25° C., 60% R.H., 2 hours) was 1 and the Appearance (25° C., 60% R.H., 4 hours) was 1. The Appearance (25° C., 60% R.H., 8 hours) was 1, the Appearance (25° C., 60% R.H., 16 hours) was 1 and the Appearance (25° C., 60% R.H., 24 hours) was 1. The Appearance (25° C., 60% R.H., 36 hours) was 1, the “Preservation after one year” value (25° C., 60% relative humidity, one year) was “perfectly preserved” and the Colour change (40° C., 85% relative humidity, about 12 months) was “slight darkening of the colour”. The “Change in the subsequent 12 months” value (40° C., 85% relative humidity, months 12 to 24) was “remains constant”, the “Appearance scale value assigned in all the tests” value (all temperature/humidity conditions of Tables 1 to 6) was 1 and the “Sensitivity to ambient relative humidity” value (even at high temperatures) was “practically negligible”. For the same compound, the Titre of glucosamine (solid storage, 8 h) was 101.2%, the Titre of glucosamine (solid storage, 24 h) was 99.2% and the Titre of glucosamine (solid storage, 1152 h) was 98.4%. For the same compound, the Titre of glucosamine (solid storage, 1440 h) was 98.6%, the degraded at 8760 h ([8]; 85% rh) was 3 to 4% and the remaining at 36 h ([8]; Titre of glucosamine) was 100%. It also gave a remaining at 1152 h ([8]; Titre of glucosamine) of 101%.
